{"source": "patent US11319565B2", "about": "“Method for preparing lipoamino acids based on deep eutectic solvents” (Jiangnan University, priority 2019, dated 2022)", "key": {"[1]": {"test": "CMC value determined by conductivity method", "assay_type": "physicochemical", "details": "aqueous solution", "experimental": "The CMC value is determined by a conductivity method: The relationship between the conductivity of an ionic surfactant aqueous solution and the concentration is used to draw a ∧m-C^1/2 curve, and the CMC value is derived from the turning point of the curve.\n∧m=K/C. The unit of ∧m is S·m^2/mol, and the unit of C is mol/L.\nFor a strong electrolyte, if the temperature is constant, the molar conductivity ∧m of the strong electrolyte solution has a linear relationship with the concentration of the solution c^1/2 in an extremely low concentration range. For a colloidal electrolyte, the conductivity and molar conductivity of a dilute solution change in the same way as the strong electrolyte."}, "[2]": {"test": "Substrate solubility in natural deep eutectic solvent (polarizing microscope)", "assay_type": "physicochemical", "details": "in natural deep eutectic solvent C-Gly (choline chloride-glycerin), 60° C., 200 rpm", "experimental": "10 g of natural deep eutectic solvent (C-Gly) was accurately weighed and placed in a thermostatic shaking water bath at 60° C. After the temperature was constant, 10 mg of lauric acid was weighed and added thereto, and the mixture was shaken at 200 rpm for 30 min. Then a drop was taken out by a capillary and detected under a polarizing microscope. […] The final substrate solubility was calculated according to the following formula: S=mt×10/1000 (1).\nHerein, S is the solubility and mt is the total addition amount of substrate."}}}
{"molecule": "CCCCCCCCCCCC(=O)NCC(=O)O", "note": "[lauroyl glycine]", "values": [{"measurement": "CMC value", "setting": "[1]", "result": 0.0044, "unit": "mol/L"}]}
{"molecule": "Gemini lauroyl lysine [Gemini lauroyl amino acid]", "values": [{"measurement": "CMC value", "setting": "[1]", "result": 0.0044, "unit": "mol/L"}]}
{"molecule": "CCCCCCCCCCCC(=O)O", "note": "[lauric acid]", "values": [{"measurement": "solubility", "setting": "[2]", "result": 24.98, "unit": "g/100 g"}]}
